Source: patent publication US20240083917A1, “Polycyclic Kinase Inhibitor” (priority 2021, published 2024)

What follows are compounds tested against DNA-PK (Homo sapiens (Human), UniProt P78527) (assay: In vitro enzymatic activity, ADP-Glo Kinase Assay). Details: starting concentration 1 μM, 10 concentrations.
Format: biochemical
Experimental: Test substances: the compounds of the present disclosure, whose structural formulas and preparation methods are shown in the Examples.
1. Preparation of 1-Fold Kinase Buffer
1) The detection starting concentration of the compound was 1 μM, and it was prepared to a 100-fold concentration, namely 100 μM. 2 μl of […] was taken, 198 μl of 100% DMSO was added, and it was prepared into 100 μM compound solution. 100 μl of the compound of 100-fold concentration was added to a second well on a 96-well plate, and 60 μl of 100% DMSO was added to other wells. 30 μl of the compound was taken from the second well and added to a third well, it was diluted downwards sequentially by 3 times, and there was a total of 10 concentrations diluted.
2) 100 μl of 100% DMSO and positive control wortmannin with the highest concentration (400 nM) were transferred to two empty wells as a Max well and a Min well respectively.
3) 50 nl of the compound was transferred to a 384-well plate by Echo.
3. Preparation of 2× Kinase Solution
1) The 1-fold kinase buffer was used to prepare 2-fold DNA-PK kinase solution.
2) 2.5 μl of the 2-fold kinase solution was transferred to a reaction well of the 384-well plate.
3) It was shaken, mixed uniformly, and still placed at a room temperature.
4. Preparation of 2× Substrate Solution
1) The 1-fold kinase buffer was used to prepare 2-fold substrate solution.
2) 2.5 μl of the 2-fold substrate solution was transferred to the reaction well of the 384-well plate for a starting reaction.
3) It was shaken, and mixed uniformly.
5. Kinase Reaction and Termination
1) The 384-well plate was covered by a cover, and incubated at 28° C for 3 hours.
2) 5 μl of ADP-Glo reagent was transferred, and incubated at 28° C. for 2 hours.
6. Detection of Reaction Result
1) 10 μl of a kinase detection reagent was transferred into the reaction well of the 384-well plate for terminating the reaction.
2) It was still placed at the room temperature for 30 minutes.
Sample values were read on Envision.
8. Inhibition Rate Calculation
1) Data was copied from Envision.
2) It was converted into inhibition rate data.
Inhibition percentage=(max-conversion)/(max-min)*100. Wherein, max refers to the conversion rate of a DMSO control, min refers to the conversion rate of a control without enzyme activity, and conversion refers to the conversion rate of the test compound at each concentration.
3) The data was imported into MS Excel and XLFit excel add-in version 5.4.0.8 was used for curve fitting.
In the case of `COC1CCC2(CC1)CN=C1N(C)c3cnc(Nc4cn5ncnc5cc4C)nc3N12` (single isomer, unassigned) [Compound 16-1, 4-methoxy-5′-methyl-N-(7-methyl-[1,2,4]triazolo[1,5-a]pyridin-6-yl)-5′,7′-dihydrospiro[cyclohexane-1,8′-imidazo[1,2-e]purin]-2′-amine], the IC50 is reported as 3 nM.
With `Cc1cc2ncnn2cc1Nc1ncc2c(n1)N1C(=NCC13CCC(O)CC3)N2C` (single isomer, unassigned) [Compound 7-2, 5′-methyl-2′-((7-methyl-[1,2,4]-triazolo[1,5-a]pyridin-6-yl)amino)-5′,7″-dihydrospiro[cyclohexane-1,8′-imidazo[1,2-e]purine]-4-ol] the IC50 was 0.72 nM.
`Cc1cc2ncnn2cc1Nc1ncc2c(n1)N1C(=NCC13CCCOCC3)N2C` (stereo not shown) [Compound 19, 5methyl-N-(7-methyl-[1,2,4]triazolo[1,5-a]pyridin-6-yl)-5,7-dihydrospiro[imidazo[1,2-e]purine-8,4′-oxepan]-2-amine] was tested, and the IC50 was 1.6 nM.
In the case of `Cc1cc2ncnn2cc1Nc1ncc2nc3n(c2n1)C1(CCOCC1)CN3C` [Compound 2, 6-methyl-N-(7-methyl-[1,2,4]triazolo[1,5-a]pyridin-6yl)-2′,3′,5′,6,6′,7-hexahydrospiro[imidazo[1,2-e]purine-8,4′-pyran]-2-amine], the IC50 is reported as 22 nM.
`Cc1cc2ncnn2cc1Nc1ncc2c(n1)N1C(=NCC13CCC(O)CC3)N2C` (single isomer, unassigned) [Compound 7-1, 5′-methyl-2′-((7-methyl-[1,2,4]-triazolo[1,5-a]pyridin-6-yl)amino)-5′,7″-dihydrospiro[cyclohexane-1,8′-imidazo[1,2-e]purine]-4-ol] showed an IC50 of 0.62 nM.
With `Cc1cc2ncnn2cc1Nc1ncc2c(n1)N1C(=NC[C@@]13CCCOCC3)N2C` [Compound 19-1] the IC50 was 1.1 nM.
With `Cc1cc2ncnn2cc1Nc1ncc2c(n1)N1C(=NCC13CCOC3)N2C` (stereo not shown) [Compound 18, 5′-methyl-N-(7-methyl-[1,2,4]-triazolo[1,5-a]pyridin-6-yl)-4,5,5′,7′-tetrahydro-2-H-spiro[furan-3, 8′-imidazo[1,2-e]purin]-2′-amine] the IC50 was 1.4 nM.
Work on `Cc1cc2ncnn2cc1Nc1ncc2c(n1)N1C(=NC[C@]13CCCOCC3)N2C` [Compound 19-2] yielded an IC50 of 1.7 nM.
For `Cc1cc2ncnn2cc1Nc1ncc2c(n1)N1C(=NCC13CCCCC3)N2C` [Compound 4, 5′-methyl-N-(7-methyl-[1,2,4]triazolo[1,5-a]pyridin-6-yl)-5′,7′-dihydrospiro[cyclonexane-1,8′-imidazo[1,2-e]purine]-2′-amine], the IC50 was 0.8 nM.
With `Cc1cc2ncnn2cc1Nc1ncc2c(n1)N1C(=NCC13CCC(F)(F)CC3)N2C` [Compound 5, 4,4-difluoro-5″-methyl-N-(7-methyl-[1,2,4]-triazolo[1,5-a]pyridin-6-yl)-5′,7′-dihydrospiro[cyclohexane-1,8′-imidazo[1,2-e]purine]-2′-amine] the IC50 was 1.63 nM.
Compound `Cc1cc2ncnn2cc1Nc1ncc2c(n1)N1C(=NCC13CCSCC3)N2C` [Compound 8, 5-methyl-N-(7-methyl-[1,2,4]triazolo[1,5-a]pyridin-6yl)-2′,3′,5,5′,6′,7-hexahydrospiro[imidazo[1,2-]purine-8,4′thiopyran]-2-amine] has an IC50 of 0.89 nM.
For `Cc1cc2ncnn2cc1Nc1ncc2c(n1)N1C(=NCC13CC[S+]([O-])CC3)N2C` (stereo not shown) [Compound 20, 5-methyl-2-((7-methyl-[1,5-a]pyridin-6-yl)amino)-2′,3′,5,5′,6′,7-hexanydrospiro[imidazo[1,2-e]purine-8,4′-thiopyran]-1′-oxide], the IC50 was 18.7 nM.
For `Cc1cc2ncnn2cc1Nc1ncc2c(n1)N1C(=NCC13CCC(=O)CC3)N2C` [Compound 6, 5′-methyl-2-((7-methyl-[1,2,4]-triazolo[1,5-a]pyridin-6-yl)amino)-5′,7′-dihydrospiro[cyclonexane-1,8′-imidazo[1,2-e]purine]-4-one], the IC50 was 4.8 nM.
`Cc1cc2ncnn2cc1Nc1ncc2c(n1)N1C(=NCC1(C)CCO)N2C` (stereo not shown) [Compound 17, 2-(5,8-dimethyl-2-((7-methyl-[1,2,4]-triazolo[1,5-a]pyridin-6-yl)amino)-7,8-dihydro-5H-imidazo[1,2-e]purin-8-yl) ethan-1-ol] showed an IC50 of 9.8 nM.
`Cc1cc2ncnn2cc1Nc1ncc2c(n1)N1C(=NCC13CCOCC3)N2C` [Compound 1, 5-methyl-N-(7-methyl-[1,2,4]triazolo[1,5-a]pyridin-6-yl)-2′,3′,5,5′,6′,7-hexanydrospiro[imidazo[1,2-e]purine-8,4′-pyran]-2-amine] showed an IC50 of 0.82 nM.
`COC1(C)CCC2(CC1)CN=C1N(C)c3cnc(Nc4cn5ncnc5cc4C)nc3N12` (stereo not shown) [Compound 15-1, 4-methoxy-4,5′-dimethyl-N-(7-methyl-[1,2,4]triazolo[1,5-a]pyridin-6H)-5′7′-dihydrospiro[cyclohexane-1,8′-imidazo[1,2-e]purin]-2′-amine] was tested, and the IC50 was 1.37 nM.
In the case of `COC1CCC2(CC1)CN=C1N(C)c3cnc(Nc4cn5ncnc5cc4C)nc3N12` (single isomer, unassigned) [Compound 16-2, 4-methoxy-5′-methyl-N-(7-methyl-[1,2,4]triazolo[1,5-a]pyridin-6-yl)-5′,7′-dihydrospiro[cyclohexane-1,8′-imidazo[1,2-e]purin]-2′-amine], the IC50 is reported as 2.2 nM.
Work on `Cc1cc2ncnn2cc1Nc1ncc2c(n1)N1C(=NCC13CCS(=O)(=O)CC3)N2C` [Compound 9, 5-methyl-2-((7-methyl-[1,2,4]-triazolo[1,5-a]pyridin-6-yl)amino)-2′,3′,5,5′,6′,7-hexahydrospiro[imidazo[1,2-e]purine-8,4′-thiopyran]1′,1′-dioxide] yielded an IC50 of 21 nM.
Compound `Cc1cc2ncnn2cc1Nc1ncc2nc3n(c2n1)C1(CCOCC1)CN3` [Compound 3, N-(7-methyl[1,2,4]-triazolo[1,5-a]pyridin-6-yl)-2′,3′,5′,6,6′,7-hexahydrospiro[imidazo[1,2-e]purine-8,4′-pyran]-2-amine] has an IC50 of 10.6 nM.
